From PMC13324451 (The Journal of Biological Chemistry, 2026)

Biological target: T1, RhsF-CT (Chromobacterium violaceum, UniProt Q7NY44)
T1 construct: gene CV_1431; C-terminal toxin domain, residues 1393-1513, 14 kDa; His6-TEV tag, apparently kept
Type: biochemical

**Q.** For `NC(=O)c1ccc[n+]([C@@H]2O[C@H](COP(=O)(O)OP(=O)(O)OC[C@H]3O[C@@H](n4cnc5c(N)ncnc54)[C@H](O)[C@@H]3O)[C@@H](O)[C@H]2O)c1` [NAD^+], which “RNA ADP-ribosylation, TBE-urea gel and anti-ADP-ribose immunoblot” value is on record?
**A.** Its value is “indicating that RhsF-CT can transfer ADP-ribose from NAD^+ to the RNA”.
